# Like-named read-outs stand apart in the source and are kept apart here. Positions of bridges follow the written chain, without caps; N, C: chain ends. Non-standard residues stand in square brackets, D forms with d. Residues, ends and D or L forms follow the SMILES beside them. ξ: configuration not given here. Tyr(3-Br) = N[C@@H](Cc1ccc(O)c(Br)c1)C(=O)O; Phe(4-CN) = N#Cc1ccc(C[C@H](N)C(=O)O)cc1; Ala(2-furyl) = N[C@@H](Cc1ccco1)C(=O)O; Phe(3-Me) = Cc1cccc(C[C@H](N)C(=O)O)c1; Phe(2-Me) = Cc1ccccc1C[C@H](N)C(=O)O; Bta = N[C@@H](Cc1csc2ccccc12)C(=O)O; cisHyp = O=C(O)[C@@H]1C[C@H](O)CN1; Hyp = O=C(O)[C@@H]1C[C@@H](O)CN1; NMeF = CN[C@@H](Cc1ccccc1)C(=O)O; NMeNle = CCCC[C@H](NC)C(=O)O; NMeA = CN[C@@H](C)C(=O)O; Orn = NCCC[C@H](N)C(=O)O; Dab = NCC[C@H](N)C(=O)O; Dap = NC[C@H](N)C(=O)O; ξC = NC(CS)C(=O)O; Sar = CNCC(=O)O
# Columns and labels:
# [1] = target: T1, LK35.2-hPD-L1 cells / PE-labeled PD-1-Ig (Homo sapiens, UniProt Q9NZQ7); test: LK35.2-hPD-L1 cell binding high-content screening assay; assay type: cell-based
# T1 construct: expressed in transfected cells; host or cells: LK35.2 mouse B cell line
# T1 sequence (Q9NZQ7 19-290): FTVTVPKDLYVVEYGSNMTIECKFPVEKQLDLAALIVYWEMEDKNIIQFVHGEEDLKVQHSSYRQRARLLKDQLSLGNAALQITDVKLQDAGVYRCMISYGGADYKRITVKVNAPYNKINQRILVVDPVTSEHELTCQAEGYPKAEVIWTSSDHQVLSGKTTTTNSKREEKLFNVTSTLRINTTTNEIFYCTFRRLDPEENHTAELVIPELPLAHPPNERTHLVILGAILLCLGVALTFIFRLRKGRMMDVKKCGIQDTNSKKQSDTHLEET
# Method in brief: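 Mouse LK35.2 B cells stably overexpressing human PD-L1 were cultured overnight in RPMI with 10% FCS, then given compound and PE-labeled human PD-1-Ig (1 nM final) for 1 h at 37 °C. After three dPBS washes, bound fluorescence was quantified by high-content imaging.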
# Human PD-L1/PD-1 = target: T2, Human PD-L1/PD-1 (Homo sapiens, UniProt Q9NZQ7); test: HTRF PD-1-Ig/PD-L1-His binding assay (human PD-L1)
# T2 construct: made in house; host or cells: HEK293T
# T2 sequence (Q9NZQ7 with tags, fused parts or gaps): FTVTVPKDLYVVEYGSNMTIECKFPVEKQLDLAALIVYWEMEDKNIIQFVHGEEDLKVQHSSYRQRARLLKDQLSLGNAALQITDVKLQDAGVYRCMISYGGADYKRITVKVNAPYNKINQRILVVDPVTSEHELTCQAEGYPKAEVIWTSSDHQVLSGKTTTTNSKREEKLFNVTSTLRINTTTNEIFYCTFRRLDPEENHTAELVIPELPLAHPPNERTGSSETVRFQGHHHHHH
# Method in brief: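 HTRF read-out: Eu cryptate anti-Ig mAb 1 nM final, APC anti-His mAb 20 nM final, added over the binding reaction. Proteins were PD-1-Ig and PD-L1-His ectodomain fusions. Buffer was dPBS, 0.1% BSA, 0.05% Tween-20.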
# [2] = cluster symbol, cell line of CBA not given (LK35.2-hPD-L1 or 293T-hPD-L1), read-out: CBA IC50 cluster
# [3] = cluster symbol, read-out: HTRF IC50 cluster
# [4] = cell binding assay, cell line not given, cluster symbol, read-out: CBA IC50 cluster
SMILES,"IC50 [1, 2] [nM]",IC50 (Human PD-L1/PD-1; [3]) [nM],"IC50 [1, 4] [nM]","IC50 ([1]; cell binding assay, cell line not given, numeric value, read-out: CBA IC50 values) [nM]","IC50 (Human PD-L1/PD-1; numeric value, read-out: HTRF IC50 values) [nM]"
CCCC[C@H]1C(=O)N(C)[C@@H](CCCC)C(=O)N[C@@H](CCCNC(=N)N)C(=O)NC(C(=O)NCC(N)=O)CSCC(=O)N[C@@H](Cc2ccc(O)cc2)C(=O)N(C)[C@@H](C)C(=O)N[C@@H](CC(N)=O)C(=O)N2CCC[C@H]2C(=O)N[C@@H](CC(N)=O)C(=O)N[C@@H](CC(C)C)C(=O)N2CCC[C@H]2C(=O)N[C@@H](Cc2c[nH]c3ccccc23)C(=O)N[C@@H](CO)C(=O)N[C@@H](Cc2csc3ccccc23)C(=O)N1C (stereo partly shown) [Example 9060] ({CH2CO}-Y[NMeA]NPNLPWS[Bta][NMeNle][NMeNle]R[ξC]G-NH2; thioether N-14),,0.385 to 6.74,0.158 to 4.71,,
"CCCC[C@H]1C(=O)N(C)CC(=O)N[C@@H](CC)C(=O)N[C@@H](C(C)C)C(=O)N(C)[C@@H](Cc2ccccc2)C(=O)N[C@@H](Cc2ccc(O)cc2)C(=O)N(C)CC(=O)N[C@@H](Cc2c[nH]c3ccccc23)C(=O)N[C@@H](Cc2ccc(O)cc2)C(=O)N[C@@H](CC(C)C)C(=O)N[C@H](C(=O)NCC(N)=O)CSCC(=O)N[C@@H](Cc2ccccc2)C(=O)N(C)[C@@H](Cc2ccccc2)C(=O)N1C [Example 3146] (HELM PEPTIDE1{[O=C(C[*:3])[*:2]].F.[meF].[CCCC[C@@H](C(=O)[*:2])N(C)[*:1]].[Sar].[Abu].V.[meF].Y.[Sar].W.Y.L.C.G.[am]}$PEPTIDE1,PEPTIDE1,1:R3-14:R3$$$V2.0)",4.78 to 72.9,> 30.5,,,
CCCC[C@H]1C(=O)N(C)CC(=O)N[C@@H](CC(=O)O)C(=O)N[C@@H](C(C)C)C(=O)N[C@@H](Cc2ccccc2C)C(=O)N[C@@H](Cc2ccc(O)cc2)C(=O)N(C)CC(=O)N[C@@H](Cc2c[nH]c3ccccc23)C(=O)N[C@@H](Cc2ccc(O)cc2)C(=O)N[C@@H](CC(C)C)C(=O)N[C@H](C(=O)NCC(N)=O)CSCC(=O)N[C@@H](Cc2ccccc2)C(=O)N(C)[C@@H](Cc2ccccc2)C(=O)N1C [Example 3133] ({CH2CO}-F[NMeF][NMeNle][Sar]DV[Phe(2-Me)]Y[Sar]WYLCG-NH2; thioether N-13),> 74.3,> 30.5,,,
CCCC[C@H]1C(=O)N(C)[C@@H](CCCC)C(=O)N[C@@H](CCCN)C(=O)N[C@H](C(=O)NCC(N)=O)CSCC(=O)N[C@@H](Cc2ccc(O)cc2)C(=O)N2CCC[C@H]2C(=O)N[C@@H](CC(=O)O)C(=O)N2CCC[C@H]2C(=O)N[C@@H](CN)C(=O)N[C@@H](CC(C)C)C(=O)N2C[C@@H](O)C[C@H]2C(=O)N[C@@H](Cc2c[nH]c3ccccc23)C(=O)N[C@@H](CO)C(=O)N[C@@H](Cc2c[nH]c3ccccc23)C(=O)N1C [Example 1149] ({CH2CO}-YPDP[Dap]L[cisHyp]WSW[NMeNle][NMeNle][Orn]CG-NH2; thioether N-14),4.78 to 72.9,6.76 to 30.3,,,
CCCC[C@H]1C(=O)N(C)CC(=O)N[C@@H](CC(=O)O)C(=O)N[C@@H](C(C)C)C(=O)N(C)[C@@H](Cc2ccccc2)C(=O)N[C@@H](Cc2ccc(O)cc2)C(=O)N(C)CC(=O)N[C@@H](Cc2c[nH]c3ccccc23)C(=O)N[C@@H](Cc2ccc(O)cc2)C(=O)N[C@@H](CC(C)C)C(=O)N[C@H](C(=O)NCC(N)=O)CSCC(=O)N[C@@H](Cc2ccco2)C(=O)N(C)[C@@H](Cc2ccccc2)C(=O)N1C [Example 3101] ({CH2CO}-[Ala(2-furyl)][NMeF][NMeNle][Sar]DV[NMeF]Y[Sar]WYLCG-NH2; thioether N-13),> 74.3,> 30.5,,,
CCCC[C@H]1C(=O)N(C)[C@@H](CCCC)C(=O)N[C@@H](CCCNC(=N)N)C(=O)N[C@H](C(=O)NCC(N)=O)CSCC(=O)N[C@@H](Cc2ccccc2)C(=O)N(C)[C@@H](C)C(=O)N[C@@H](CC(N)=O)C(=O)N2CCC[C@H]2C(=O)N[C@@H](CCCN)C(=O)N[C@@H](CC(C)C)C(=O)N(C)CC(=O)N[C@@H](Cc2c[nH]c3ccccc23)C(=O)N[C@@H](CO)C(=O)N[C@@H](Cc2c[nH]c3ccccc23)C(=O)N1C [Example 1059] ({CH2CO}-F[NMeA]NP[Orn]L[Sar]WSW[NMeNle][NMeNle]RCG-NH2; thioether N-14),> 74.3,> 30.5,,,
CCCC[C@H]1C(=O)N2CCC[C@@H]2C(=O)N[C@@H](CCN)C(=O)N[C@H](C(=O)NCC(N)=O)CSCC(=O)N[C@@H](Cc2ccc(O)c(Br)c2)C(=O)N(C)[C@@H](C)C(=O)N[C@@H](CC(N)=O)C(=O)N2CCC[C@H]2C(=O)N[C@@H](Cc2cnc[nH]2)C(=O)N[C@@H](CC(C)C)C(=O)N2C[C@H](O)C[C@H]2C(=O)N[C@@H](Cc2c[nH]c3ccccc23)C(=O)N[C@@H](CCN)C(=O)N[C@@H](Cc2c[nH]c3ccccc23)C(=O)N1C [Example 6044] ({CH2CO}-[Tyr(3-Br)][NMeA]NPHL[Hyp]W[Dab]W[NMeNle][dP][Dab]CG-NH2; thioether N-14),,6.76 to 30.3,> 74.3,,

# Results, then the compound that gave them:
"IC50 [1, 2] [nM]",IC50 (Human PD-L1/PD-1; [3]) [nM],"IC50 [1, 4] [nM]","IC50 ([1]; cell binding assay, cell line not given, numeric value, read-out: CBA IC50 values) [nM]","IC50 (Human PD-L1/PD-1; numeric value, read-out: HTRF IC50 values) [nM]",SMILES
4.78 to 72.9,6.76 to 30.3,,,,CCCC[C@H]1C(=O)N(C)[C@@H](CCCC)C(=O)N[C@@H](CCCNC(=N)N)C(=O)N[C@H](C(=O)NCC(N)=O)CSCC(=O)N[C@@H](Cc2ccccc2)C(=O)N(C)[C@@H](C)C(=O)N[C@@H](CC(N)=O)C(=O)N2CCC[C@H]2C(=O)N[C@@H](CN)C(=O)N[C@@H](CC(C)C)C(=O)N(C)CC(=O)N[C@@H](Cc2c[nH]c3ccccc23)C(=O)N[C@@H](CO)C(=O)N[C@@H](Cc2c[nH]c3ccccc23)C(=O)N1C [Example 1060] ({CH2CO}-F[NMeA]NP[Dap]L[Sar]WSW[NMeNle][NMeNle]RCG-NH2; thioether N-14)
,0.385 to 6.74,4.78 to 72.9,,,CCCC[C@H]1C(=O)N(C)[C@@H](CCCC)C(=O)N[C@@H](CCCNC(=N)N)C(=O)N[C@H](C(=O)NCC(N)=O)CSCC(=O)N[C@@H](Cc2cccc(C)c2)C(=O)N(C)[C@@H](C)C(=O)N[C@@H](CC(N)=O)C(=O)N2CCC[C@H]2C(=O)N[C@@H](Cc2cnc[nH]2)C(=O)N[C@@H](CC(C)C)C(=O)N2C[C@H](O)C[C@H]2C(=O)N[C@@H](Cc2c[nH]c3ccccc23)C(=O)N[C@@H](CO)C(=O)N[C@@H](Cc2c[nH]c3ccccc23)C(=O)N1C [Example 7057] ({CH2CO}-[Phe(3-Me)][NMeA]NPHL[Hyp]WSW[NMeNle][NMeNle]RCG-NH2; thioether N-14)
,0.385 to 6.74,0.158 to 4.71,,,CCCC[C@H]1C(=O)N(C)[C@@H](CCCC)C(=O)N[C@@H](CCCNC(=N)N)C(=O)N[C@H](C(=O)NCC(N)=O)CSCC(=O)N[C@@H](Cc2ccc(C#N)cc2)C(=O)N(C)[C@@H](C)C(=O)N[C@@H](CC(N)=O)C(=O)N2CCC[C@H]2C(=O)N[C@@H](Cc2cnc[nH]2)C(=O)N[C@@H](CC(C)C)C(=O)N2C[C@H](O)C[C@H]2C(=O)N[C@@H](Cc2c[nH]c3ccccc23)C(=O)N[C@@H](CO)C(=O)N[C@@H](Cc2c[nH]c3ccccc23)C(=O)N1C [Example 7046] ({CH2CO}-[Phe(4-CN)][NMeA]NPHL[Hyp]WSW[NMeNle][NMeNle]RCG-NH2; thioether N-14)
,6.76 to 30.3,4.78 to 72.9,,,CCCC[C@H]1C(=O)N(C)[C@@H](CCCC)C(=O)N[C@@H](CC(N)=O)C(=O)N[C@H](C(=O)NCC(N)=O)CSCC(=O)N[C@@H](Cc2ccccc2)C(=O)N(C)[C@@H](C)C(=O)N[C@@H](CC(N)=O)C(=O)N2CCC[C@H]2C(=O)N[C@@H](Cc2cnc[nH]2)C(=O)N[C@@H](CC(C)C)C(=O)N(C)CC(=O)N[C@@H](Cc2c[nH]c3ccccc23)C(=O)N[C@@H](CO)C(=O)N[C@@H](Cc2c[nH]c3ccccc23)C(=O)N1C [Example 5014] ({CH2CO}-F[NMeA]NPHL[Sar]WSW[NMeNle][NMeNle]NCG-NH2; thioether N-14)
,0.385 to 6.74,0.158 to 4.71,,,CCCC[C@H]1C(=O)N(C)[C@@H](CCSC)C(=O)N[C@@H](CCCNC(=N)N)C(=O)NC(C(=O)NCC(N)=O)CSCC(=O)N[C@@H](Cc2ccc(O)cc2)C(=O)N(C)[C@@H](C)C(=O)N[C@@H](CC(N)=O)C(=O)N2CCC[C@H]2C(=O)N[C@@H](Cc2cnc[nH]2)C(=O)N[C@@H](CC(C)C)C(=O)N2C[C@H](O)C[C@H]2C(=O)N[C@@H](Cc2c[nH]c3ccccc23)C(=O)N[C@@H](CO)C(=O)N[C@@H](Cc2c[nH]c3ccccc23)C(=O)N1C (stereo partly shown) [Example 9024]
,,,13.5,9.4,CCCC[C@H]1C(=O)N(C)[C@@H](CCCC)C(=O)N[C@@H](CCCNC(=N)N)C(=O)NC(C(=O)NCC(N)=O)CSCC(=O)N[C@@H](Cc2ccc(O)cc2)C(=O)N(C)[C@@H](C)C(=O)N[C@@H](CC(N)=O)C(=O)N2C[C@H](O)C[C@H]2C(=O)N[C@@H](Cc2cnc[nH]2)C(=O)N[C@@H](CC(C)C)C(=O)N2CCC[C@H]2C(=O)N[C@@H](Cc2c[nH]c3ccccc23)C(=O)N[C@@H](CO)C(=O)N[C@@H](Cc2c[nH]c3ccccc23)C(=O)N1C (stereo partly shown) [Example 9011] ({CH2CO}-Y[NMeA]N[Hyp]HLPWSW[NMeNle][NMeNle]R[ξC]G-NH2; thioether N-14)
,6.76 to 30.3,> 74.3,,,CCCC[C@H]1C(=O)N(C)[C@@H](CCCC)C(=O)N[C@@H](CO)C(=O)N[C@H](C(=O)NCC(N)=O)CSCC(=O)N[C@@H](Cc2ccccc2)C(=O)N(C)[C@@H](C)C(=O)N[C@@H](CC(N)=O)C(=O)N2CCC[C@H]2C(=O)N[C@@H](Cc2cnc[nH]2)C(=O)N[C@@H](CC(C)C)C(=O)N(C)CC(=O)N[C@@H](Cc2c[nH]c3ccccc23)C(=O)N[C@@H](CO)C(=O)N[C@@H](Cc2c[nH]c3ccccc23)C(=O)N1C [Example 10001] ({CH2CO}-F[NMeA]NPHL[Sar]WSW[NMeNle][NMeNle]SCG-NH2; thioether N-14)
